Experimental data published in patent US9757380B2 (Southern Research Institute, priority 2007, dated 2017).

What was measured:
Type in all cases: in vivo, mice
[1] = test system: tumor models; experiment: Xenograph models combined with radiation therapy (overall statement); details: compared with clofarabine
Text: (§1) Xenograph models including DU-145 (prostate), NCI-H460 NSCL (lung), SF-295 CNS (glioblastoma), SR475HN (head and neck), PANC-1 (pancreatic), and HCT-116 (colon) are employed to study the effect of compounds according to the instant disclosure combined with radiation therapy. Mice are implanted with tumor fragments subcutaneously from an in vivo passage and the tumors are allowed to grow. Mice with tumors in a designated size range are selected for the studies.

[2] = test system: DU-145 (prostate); experiment: DU-145 prostate xenograph model, clofarabine combined with radiation; details: clofarabine 30 mg/kg/dose, ip, d. 13-24, radiation 2 Gy
Text: as §1

[3] = test system: NCI-H460 NSCL (lung); experiment: NCI-H460 NSCL lung xenograph model, clofarabine combined with radiation; details: clofarabine 30 mg/kg/dose, ip, d. 8-17, radiation 3 Gy
Text: as §1

[4] = test system: SF-295 CNS (glioblastoma); experiment: SF-295 CNS glioblastoma xenograph model, clofarabine combined with radiation; details: clofarabine 30 mg/kg/dose, ip, d. 8-17, radiation 3 Gy, d. 8, 11, 14, 17
Text: as §1

[5] = test system: SR475HN (head and neck); experiment: SR475HN head and neck xenograph model, clofarabine combined with radiation; details: SR475 head & neck, clofarabine 30 mg/kg/dose, ip, d. 19-30, radiation 2 Gy, d. 19-23, 26-30
Text: as §1

[6] = test system: PANC-1 (pancreatic); experiment: PANC-1 pancreatic xenograph model, clofarabine combined with radiation; details: clofarabine 30 mg/kg/dose, ip, d. 12-23, radiation 2 Gy
Text: as §1

[7] = test system: HCT-116 (colon); experiment: HCT-116 colon xenograph model, clofarabine combined with radiation; details: clofarabine 30mg/kg/dose, ip, d. 13-24, radiation 2 Gy
Text: as §1

SMILES	radiosensitizing capacity [1]	Tumor-Free Survivors/Total ([2]; d. 13-17, 20-24)	Growth Delay (T-C, days) ([2]; d. 13-17, 20-24, combination: clofarabine first, radiation 1 hour later) [days]	Tumor-Free Survivors/Total ([3]; d. 8, 11, 14, 17)	Growth Delay (T-C, days) ([3]; d. 8, 11, 14, 17, based on time to 3 tumor doublings) [days]	Growth Delay (T-C, days) [4] [days]	Tumor-Free Survivors/Total [4]	Tumor-Free Survivors/Total [5]	Growth Delay (T-C, days) ([5]; based on 2 tumor doublings) [days]	Tumor-Free Survivors/Total ([6]; d. 12-16, 19-23)	Growth Delay (T-C, days) ([6]; d. 12-16, 19-23, based on 2 tumor doublings) [days]	Tumor-Free Survivors/Total ([7]; d. 13-17, 20-24)	Growth Delay (T-C, days) ([7]; d. 13-17, 20-24, based on 3 tumor doublings) [days]
Nc1ccn([C@@H]2O[C@H](CO)[C@@H](O)C2(F)F)c(=O)n1 [gemcitabine]	tracked with the clofarabine results												
Nc1nc(Cl)nc2c1ncn2[C@@H]1O[C@H](CO)[C@@H](O)[C@@H]1F [Clofarabine]		0/6	4.3	0/6	4.6	-0.8	0/6	0/6	18.2	0/6	17.2	0/6	24.2
